Results on three molecules are retold here after patent publication US6465636B1, “Pathogen-inducible promoter” (Zeneca Mogen B.V., priority 1998, dated 2002).

Like-named read-outs stand apart in the source and are kept apart here.

The experiment relates to ms59 messenger. Put plainly: Induction of ms59 messengers in sunflower leaves, transcript levels by competitive RT-PCR. The format is in vivo, Helianthus annuus cv Zebulon. The conditions noted are these: Helianthus annuus, read-out: fold induction of the ms59 messenger relative to the control. The procedure:
Leaves of 7 to 8 weeks old Sunflower plants (Helianthus annuus cv Zebulon) were induced by spraying 5 times with 5 mM salicylic acid (SA), spraying once with 1 mM salicylic acid, once with 0.1 mm jasmonic acid (JA), once with 1 mM ACC (1-aminocyclopropane-1-carboxylic acid, a precursor of the plant hormone ethylene) or wounding. Leaf samples were harvested from induced leaves after 24 hours (1 mM SA, 0.1 mM JA, 1 mM ACC and wounding) and after 5 days (5 mM SA). Control samples were taken at 24 hours after induction in non-induced plants.
Total RNA was extracted from 10 g leaf material using a hot phenol method and purified using the Qiagen RNA buffer set and tip-100 columns (Qiagen GmbH, Germany). Contaminating DNA was degraded using a Dnase I (Gibco BRL) treatment.
cDNA was prepared using 1 μg total RNA, 1 μl oligo(dT)12-18 primers (500 μg/ml, Gibco BRL) and 200 units of Superscript II RT RNAse H reverse transcriptase (Gibco BRL) as described by the manufacturer.
Transcript levels of ms59 were determined using the competitive RT-PCR technology.
PCR MIMIC dilutions were made in a range of […] to 0.01 ag/μl in H2O containing 0.2 μg/μl glycogen as a carrier.
The cDNA samples were analysed in a competitive RT-PCR. Therefore 2 µl of the samples was combined in a 0.5 ml tube with 1 μl diluted PCR MIMIC (amounts; 0.1 pg, 10 fg, 1.0 fg, 0.1 fg, 10 ag and 1.0 ag). Amplification of cDNA and MIMIC was performed using 10 μM of the primers FR-MS59-47 and FR-MS59-77, 0.5 μl 20 mM dNTP's, 1×PCR buffer, MgCl and 2.5 units recombinant Taq DNA polymerase (Gibco BRL) and was allowed to proceed for 35 cycles, 1′ 95° C., 1′ 55° C., 2′ 72° C. PCR products were separated on a 2% agarose gel and visualized by staining with ethidium bromide and a UV illuminator.

As to `NC1(C(=O)O)CC1` [ACC, 1-aminocyclopropane-1-carboxylic acid], the fold induction at 1000 µM (24 h) amounted to 10.

In the case of `CC/C=C\C[C@H]1C(=O)CC[C@@H]1CC(=O)O` [jasmonic acid], for the setting “24 h”, the fold induction at 100 µM was determined as 10.

Turning to `O=C(O)c1ccccc1O` [salicylic acid], the fold induction at 5000 µM (120 h, 5 mM, leaves sprayed 5 times, harvested after 5 days) was 1000. The fold induction at 1000 µM (1 mM, leaves sprayed once, harvested after 24 hours) came out at 1.
